Data set [1] relates to MDCK cells. The settings on record: previous work; cited from earlier work.
Data set [2] deals with MDCK cells. The settings on record: 4 h.
For the next data set, the system named is H5 antigen. Briefly: Hemagglutination inhibition (HI) assay. Particulars: HA-FP-1 at 50 μg/mL, chicken erythrocytes 0.5% v/v, 1 h at room temperature.
The next data set deals with H5N1 pseudovirus. It is filed as cell-based, influenza A virus.
Data set [3] has as its system H5N1 pseudovirus (HA and NA of A/Thailand/Kan353/2004).
Data set [4] deals with influenza A/Aichi/2/68 (H3N2). Particulars: /Aichi/2/68, 48 h.
Data set [5] deals with influenza A/Aichi/2/68 (H3N2). Briefly: microbe, parasite or virus in culture. Particulars: H3N2, MDCK, read-out: H3N2 IC50.

In brackets after ≈: the same amount, converted by molar mass. Ends that are not written are not given here.

As for GLFGAIAGFIKNGWKGMIKG-NH2 [HA-FP-1], the “CC50 against MDCK” value with MDCK cells [1] was 144.4 µg/mL. In the data set on MDCK cells [2], this compound had a CC50 with serum of 143.65 ± 0.63 µg/mL and a CC50 without serum of 111.70 ± 0.40 µg/mL. Besides, the “inhibition of agglutination of red blood cells” value with H5 antigen was “unable to inhibit”. Moreover, the “antiviral activity of HA-FP-1 in presence of HA-FP-O” value in the data set on H5N1 pseudovirus is given as “completely abolished”. For the same compound, in data set [3] (pseudovirus (HA and NA of A/Thailand/Kan353/2004, 48 h)), the “IC50, infection of H5N1 influenza A pseudovirus on MDCK cells” value was determined as 7.05 µg/mL. For the same compound, in data set [4], the “H3N2 IC50” value is 5.90 ± 0.62 µg/mL.
What is called IC50 is the midpoint of a concentration-inhibition curve. For the compound `NC(=O)c1ncn([C@@H]2O[C@H](CO)[C@@H](O)[C@H]2O)n1` [Ribavirin], in data set [5], the IC50 turned out to be 0.63 µg/mL (≈ 2.58 µM).
In the case of GLFGAIAGFIKKGWPGLVKG-NH2 [HA-FP-3-1], in the data set on MDCK cells [2], the CC50 with serum was found to be 209.35 ± 0.21 µg/mL and the CC50 without serum turned out to be 174.53 ± 1.90 µg/mL. For the same compound, the “H3N2 IC50” value in data set [4] came out at 27.57 ± 0.43 µg/mL.
As to “HA-FP-O: indigenous negatively charged fusion peptide of H3 hemagglutinin HA2, 20 residues (GLFGAIAGFIENGWEGMIDG)”, the “inhibition of H5N1 pseudovirus infection (in words)” value in data set [3] is “a lower or no inhibition”.
For GLFGAIAGFIKGGWPGLVKG-NH2 [HA-FP-3], in data set [4], the “H3N2 IC50” value was 34.91 ± 4.21 µg/mL.

(Values after article PMC4575187 (PLoS ONE, 2015).)
